Four molecules from patent US20240279611A1, “EXOSOME PRODUCTION PROMOTING AGENT AND EXOSOME PRODUCTION PROMOTING METHOD” (FULLSTEM CO., LTD., priority 2021, published 2024) can be followed below.

In the assay the test system is adipose-derived mesenchymal stem cells (ADSC). Put plainly: Amount of exosomes produced from ADSC, measured with Exo Counter (CD81 sandwich immunoassay) after excluding single factors. In kind it is cell-based. To be noted: 48-hour culture in DMEM F12 on nonwoven fabric; one factor excluded from the eight factors of Table 1, compared with all eight added; CD81 on exosome surface detected in culture supernatant; FIG. 1. As for the experimental part:
4×10^4 adipose-derived mesenchymal stem cells (ADSC) were seeded in each well. A nonwoven fabric (3D, BioNOCII, CESCO BIOENGINEERING CO., LTD. in non-adhesive 24 well plate (PrimeSurface (registered trademark) Sumitomo Bakelite Co., Ltd.) was used for cell culture. A basal medium was 1.5 ml of 10% FBS/DMEM F12 (Sigma-Aldrich). The number of days of culture was 6. Starting from Day 2, 1.5 ml of medium was exchanged daily, and the amount of sugar consumed in the used culture medium was measured.
Next, in the cell culture for 48 hours on Day 7 and Day 8, DMEM F12 was used as a medium so as to collect exosomes. In this 48-hour culture, 10% ExoFBS (Funakoshi Co., Ltd.) was added in Test #1. ExoFBS is a product from which bovine-derived exosomes are removed; therefore, influence on an exosome research is reduced.
In Test #3 of the 48-hour culture, only factor A was excluded from the eight factors shown in Table 1, and the other factors were added. In Test #4 of the 48-hour culture, only factor B was excluded from the eight factors shown in Table 1, and the other factors were added. In Test #5 of the 48-hour culture, only factor C was excluded from the eight factors shown in Table 1, and the other factors were added. In Test #6 of the 48-hour culture, only factor D was excluded from the eight factors shown in Table 1, and the other factors were added. In Test #7 of the 48-hour culture, only factor E was excluded from the eight factors shown in Table 1, and the other factors were added. In Test #8 of the 48-hour culture, only factor F was excluded from the eight factors shown in Table 1, and the other factors were added. In Test #9 of the 48-hour culture, only factor G was excluded from the eight factors shown in Table 1, and the other factors were added. In Test #10 of the 48-hour culture, only factor H was excluded from the eight factors shown in Table 1, and the other factors were added.
The amount of exosomes produced from ADSC was measured with Exo Counter (Kenwood), using 50 μl each from 1.5 ml of the collected culture supernatant. Exo Counter detects exosomes by sandwich immunoassay using disc and nanobeads antibodies in a surface antigen-specific manner. CD81 on the exosome surface was detected to quantify the exosome amount.

For `OC[C@H]1O[C@H](O[C@H]2O[C@H](CO)[C@@H](O)[C@H](O)[C@H]2O)[C@H](O)[C@@H](O)[C@@H]1O` [trehalose, Trehalose], the “effect of the factor on the amount of exosomes produced” value was “promoted the production of exosomes”. Then TNFα, with “inhibited the production of exosomes”.

As to “EGF [6045 Da protein consisting of 53 amino acid residues and three intramolecular disulfide bonds; ligand of epidermal growth factor receptor]”, the “effect of the factor on the amount of exosomes produced” value was “promotes the production of exosomes”. For IL-1β the value was “promoted the production of exosomes”.
